The source of these data is patent US20250241901A1, “ACTIVATION OF MNRR1 / CHCHD2 AS A THERAPEUTIC TARGET FOR MITOCHONDRIA ASSOCIATED DISORDERS” (Wayne State University, priority 2024, published 2025).

In this test the test system is MELAS cybrid cells. Put plainly: Oxygen consumption of MELAS cybrid cells (Seahorse). The class given is cell-based, human. The following applies: 10 μM, 48 h. The method, then: FIGS. 7A-7E: MNRR1 activation by tizoxanide enhances mtDNA biogenesis and mitophagy to shift heteroplasmy in MELAS cells. FIG. 7A: Oxygen consumption measured from MELAS cybrid cells treated with vehicle (DMSO) or tizoxanide (10 μM) for 48 h (n=4 biological replicates, error bars represent SE). FIG. 7B: Haelll restriction enzyme digestion of a PCR-amplified fragment of mtDNA harboring the m.3243A>G mutation from DW7 cells treated with vehicle (DMSO) or tizoxanide (10 μM) for 144 h. […] FIG. 7C: Genes identified using qPCR of MELAS cybrid cells stably overexpressing EV or MNRR1. FIG. 7D: MtDNA levels are shown relative to nuclear DNA (nDNA) (GAPDH) (n=5 biological replicates, error bars represent SE). […]
FIGS. 11A-11F: RBPJk and HIF2α compete for binding at the ORE in the MNRR1 promoter to regulate transcription. […] FIG. 11E: Oxygen consumption measured from Control or HIFα knockdown (KD) MELAS cybrid cells. […] FIG. 11F: Left, Oxygen consumption measured from MELAS cybrid cells treated with vehicle (DMSO) or PT2385 (10 μM), an inhibitor of HIF2α function, for 24 h. […]
Intact cellular oxygen consumption and measurement of ATP: Cellular oxygen consumption was measured with a Seahorse XFe24 Bioanalyzer (Agilent). Cells were plated at a concentration of 3.5×10^4 per well a day prior to treatment and basal oxygen consumption was measured 48 h after treatments, as described. […]

Regarding `O=C(Nc1ncc([N+](=O)[O-])s1)c1ccccc1O` [tizoxanide, Tizoxanide], the oxygen consumption entry is reported as “increased”.
